Measurements: US20100298141A1, “SUBSTITUTED PYRIDINE N-OXIDE HERBICIDES” (E. I. DU PONT DE NEMOURS AND COMPANY, priority 2007, published 2010)

Tests used:
corn = test: Test A pre-/postemergence greenhouse test; type: in vivo, Zea mays; details: for Corn plant response rating: 0 to 100 scale; for Plant response rating, Corn: 0 to 100 scale where 0 is no effect and 100 is complete control
Summary of the method: (§1)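 Visual injury ratings against untreated controls, taken roughly ten days after treatment in greenhouse. Plants were sprayed postemergence at one- to two-leaf stage (2–10 cm tall); at the same time, seeded loam/sand soil received a directed preemergence spray. Formulation: non-phytotoxic solvent mixture with surfactant.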

giant foxtail = test: Test A pre-/postemergence greenhouse test; type: in vivo, Setaria faberi; details: for Foxtail, Giant plant response rating: 0 to 100 scale; for Plant response rating, Foxtail, Giant: 0 to 100 scale where 0 is no effect and 100 is complete control
Summary of the method: as §1

morningglory = test: Test A pre-/postemergence greenhouse test; type: in vivo, Ipomoea spp.; details: for Morningglory plant response rating: 0 to 100 scale; for Plant response rating, Morningglory: 0 to 100 scale where 0 is no effect and 100 is complete control
Summary of the method: as §1

crabgrass = test: Test A pre-/postemergence greenhouse test; type: in vivo, Digitaria sanguinalis; details: for Crabgrass, Large plant response rating: 0 to 100 scale; for Plant response rating, Crabgrass, Large: 0 to 100 scale where 0 is no effect and 100 is complete control
Summary of the method: as §1

redroot pigweed = test: Test A pre-/postemergence greenhouse test; type: in vivo, Amaranthus retroflexus; details: for Pigweed plant response rating: 0 to 100 scale; for Plant response rating, Pigweed: 0 to 100 scale where 0 is no effect and 100 is complete control
Summary of the method: as §1

barnyardgrass [1] = test: Test A pre-/postemergence greenhouse test; type: in vivo, Echinochloa crus-galli; details: for Barnyardgrass plant response rating: 0 to 100 scale; for Plant response rating, Barnyardgrass: 0 to 100 scale where 0 is no effect and 100 is complete control
Summary of the method: as §1

wheat = test: Test A pre-/postemergence greenhouse test; type: in vivo, Triticum aestivum; details: for Wheat plant response rating: 0 to 100 scale; for Plant response rating, Wheat: 0 to 100 scale where 0 is no effect and 100 is complete control
Summary of the method: as §1

umbrella sedge = test: Test C flooded paddy test; type: in vivo, Cyperus difformis; details: Flood
Excerpt: (§2) At time of treatment, test pots were flooded to 3 cm above the soil surface, treated by application of test compounds directly to the paddy water, and then maintained at that water depth for the duration of the test. Treated plants and controls were maintained in a greenhouse for 13 to 15 days, after which time all species were compared to controls and visually evaluated. […] A dash (-) response means no test result.

duck salad = test: Test C flooded paddy test; type: in vivo, Heteranthera limosa; details: Flood
Excerpt: as §2

rice = test: Test C flooded paddy test; type: in vivo, Oryza sativa; details: Flood
Excerpt: as §2

barnyardgrass [2] = test: Test C flooded paddy test; type: in vivo, Echinochloa crus-galli; details: Flood
Excerpt: as §2

velvetleaf = test: Test A pre-/postemergence greenhouse test; type: in vivo, Abutilon theophrasti; details: for Velvetleaf plant response rating: 0 to 100 scale; for Plant response rating, Velvetleaf: 0 to 100 scale where 0 is no effect and 100 is complete control
Summary of the method: as §1

[3] = Postemergence, 125 g ai/ha, 0 is no effect, 100 is complete control
[4] = Postemergence, 500 g ai/ha, 0 is no effect, 100 is complete control
[5] = Preemergence, 125 g ai/ha, 0 no effect, 100 complete control
[6] = 31 g ai/ha, scale 0 to 100 (0 no effect, 100 complete control)
[7] = 62 g ai/ha, scale 0 to 100, 0 no effect, 100 complete control, 13 to 15 days
[8] = 125 g ai/ha, scale 0 to 100, 0 no effect, 100 complete control, 13 to 15 days
[9] = 250 g ai/ha, scale 0 to 100, 0 no effect, 100 complete control, 13 to 15 days
[10] = 250 g ai/ha, scale 0 to 100 (0 no effect, 100 complete control)

## CC(c1c(C(F)(F)F)nn(C)c1OC(F)F)S(=O)(=O)c1ccc(Br)c[n+]1[O-] (racemic) [Compound 23]
corn; [3]
  Corn plant response rating: 0
corn; [4]
  Corn plant response rating: 0
corn; [5]
  Corn plant response rating: 0
corn; Preemergence, 500 g ai/ha
  Plant response rating, Corn: 0
Giant foxtail; [3]
  Foxtail, Giant plant response rating: 0
Giant foxtail; [4]
  Foxtail, Giant plant response rating: 40
Giant foxtail; [5]
  Foxtail, Giant plant response rating: 30
Giant foxtail; Preemergence, 500 g ai/ha
  Plant response rating, Foxtail, Giant: 80
morningglory; [3]
  Morningglory plant response rating: 0
morningglory; [4]
  Morningglory plant response rating: 0
morningglory; [5]
  Morningglory plant response rating: 0
morningglory; Preemergence, 500 g ai/ha
  Plant response rating, Morningglory: 0
crabgrass; [3]
  Crabgrass, Large plant response rating: 40
crabgrass; [4]
  Crabgrass, Large plant response rating: 50
crabgrass; [5]
  Crabgrass, Large plant response rating: 60
crabgrass; Preemergence, 500 g ai/ha
  Plant response rating, Crabgrass, Large: 90
Redroot pigweed; [3]
  Pigweed plant response rating: 0
Redroot pigweed; [4]
  Pigweed plant response rating: 50
Redroot pigweed; [5]
  Pigweed plant response rating: 100
Redroot pigweed; Preemergence, 500 g ai/ha
  Plant response rating, Pigweed: 100
Barnyardgrass [1]; [3]
  Barnyardgrass plant response rating: 0
Barnyardgrass [1]; [4]
  Barnyardgrass plant response rating: 0
Barnyardgrass [1]; [5]
  Barnyardgrass plant response rating: 40
Barnyardgrass [1]; Preemergence, 500 g ai/ha
  Plant response rating, Barnyardgrass: 90
wheat; [3]
  Wheat plant response rating: 0
wheat; [4]
  Wheat plant response rating: 0
wheat; [5]
  Wheat plant response rating: 0
wheat; Preemergence, 500 g ai/ha
  Plant response rating, Wheat: 0
Umbrella sedge; [6]
  Plant response rating, Sedge, Umbrella: 0
Umbrella sedge; [7]
  Plant response rating, Sedge, Umbrella: 55
Umbrella sedge; [8]
  Plant response rating, Sedge, Umbrella: 75
Umbrella sedge; [9]
  Plant response rating, Sedge, Umbrella: 75
Duck salad; [6]
  Plant response rating, Ducksalad: 0
Duck salad; [7]
  Plant response rating, Ducksalad: 60
Duck salad; [8]
  Plant response rating, Ducksalad: 70
Duck salad; [10]
  Plant response rating, Ducksalad: 80
rice; [6]
  Plant response rating, Rice: 0
rice; [7]
  Plant response rating, Rice: 70
rice; [8]
  Plant response rating, Rice: 70
rice; [10]
  Plant response rating, Rice: 70
Barnyardgrass [2]; [6]
  Plant response rating, Barnyardgrass: 0
Barnyardgrass [2]; [7]
  Plant response rating, Barnyardgrass: 45
Barnyardgrass [2]; [8]
  Plant response rating, Barnyardgrass: 60
Barnyardgrass [2]; [10]
  Plant response rating, Barnyardgrass: 70
velvetleaf; [3]
  Velvetleaf plant response rating: 0
velvetleaf; [4]
  Velvetleaf plant response rating: 0
velvetleaf; [5]
  Velvetleaf plant response rating: 0
velvetleaf; Preemergence, 500 g ai/ha
  Plant response rating, Velvetleaf: 0

## Cn1nc(C(F)(F)F)c(CS(=O)(=O)c2cc(Cl)cc[n+]2[O-])c1Cl [Compound 38]
corn; [3]
  Corn plant response rating: 0
corn; [4]
  Corn plant response rating: 0
corn; [5]
  Corn plant response rating: 0
corn; Preemergence, 500 g ai/ha
  Plant response rating, Corn: 0
Giant foxtail; [3]
  Foxtail, Giant plant response rating: 0
Giant foxtail; [4]
  Foxtail, Giant plant response rating: 0
Giant foxtail; [5]
  Foxtail, Giant plant response rating: 0
Giant foxtail; Preemergence, 500 g ai/ha
  Plant response rating, Foxtail, Giant: 30
morningglory; [3]
  Morningglory plant response rating: 0
morningglory; [4]
  Morningglory plant response rating: 0
morningglory; [5]
  Morningglory plant response rating: 0
morningglory; Preemergence, 500 g ai/ha
  Plant response rating, Morningglory: 0
crabgrass; [3]
  Crabgrass, Large plant response rating: 0
crabgrass; [4]
  Crabgrass, Large plant response rating: 0
crabgrass; [5]
  Crabgrass, Large plant response rating: 0
crabgrass; Preemergence, 500 g ai/ha
  Plant response rating, Crabgrass, Large: 0
Redroot pigweed; [3]
  Pigweed plant response rating: 0
Redroot pigweed; [4]
  Pigweed plant response rating: 0
Redroot pigweed; [5]
  Pigweed plant response rating: 0
Redroot pigweed; Preemergence, 500 g ai/ha
  Plant response rating, Pigweed: 0
Barnyardgrass [1]; [3]
  Barnyardgrass plant response rating: 0
Barnyardgrass [1]; [4]
  Barnyardgrass plant response rating: 0
Barnyardgrass [1]; [5]
  Barnyardgrass plant response rating: 30
Barnyardgrass [1]; Preemergence, 500 g ai/ha
  Plant response rating, Barnyardgrass: 60
wheat; [3]
  Wheat plant response rating: 0
wheat; [4]
  Wheat plant response rating: 0
wheat; [5]
  Wheat plant response rating: 0
wheat; Preemergence, 500 g ai/ha
  Plant response rating, Wheat: 0
Umbrella sedge; [6]
  Plant response rating, Sedge, Umbrella: 0
Umbrella sedge; [7]
  Plant response rating, Sedge, Umbrella: 0
Umbrella sedge; [8]
  Plant response rating, Sedge, Umbrella: 0
Umbrella sedge; [9]
  Plant response rating, Sedge, Umbrella: 0
Duck salad; [6]
  Plant response rating, Ducksalad: 0
Duck salad; [7]
  Plant response rating, Ducksalad: 0
Duck salad; [8]
  Plant response rating, Ducksalad: 0
Duck salad; [9]
  Plant response rating, Ducksalad: 0
rice; [6]
  Plant response rating, Rice: 0
rice; [7]
  Plant response rating, Rice: 0
rice; [8]
  Plant response rating, Rice: 0
rice; [9]
  Plant response rating, Rice: 0
Barnyardgrass [2]; [6]
  Plant response rating, Barnyardgrass: 0
Barnyardgrass [2]; [7]
  Plant response rating, Barnyardgrass: 0
Barnyardgrass [2]; [8]
  Plant response rating, Barnyardgrass: 0
Barnyardgrass [2]; [9]
  Plant response rating, Barnyardgrass: 0
velvetleaf; [3]
  Velvetleaf plant response rating: 0
velvetleaf; [4]
  Velvetleaf plant response rating: 0
velvetleaf; [5]
  Velvetleaf plant response rating: 0
velvetleaf; Preemergence, 500 g ai/ha
  Plant response rating, Velvetleaf: 0
